Experiments:
[1] = target: T1, recombinant HIV-1 NCp7 protein (Human immunodeficiency virus type 1 group M subtype B, UniProt P03347); test: Trp37 zinc finger fluorescence (zinc ejection) assay; assay type: biochemical; set-up: Zinc Finger Reactivity, percent total decrease in flourescence / Zinc Finger Reactivity % Decrease: concentration or dose not given beside the values; settings: for zinc finger reactivity in the presence of glutathione: 2 molar excess of glutathione; for Zinc Finger Reactivity, decrease in relative fluorescence units per 30 min. / Zinc Finger Reactivity, percent total decrease in flourescence: Table 7; for Zinc Finger Reactivity, percent total decrease in flourescence: value in parenthesis; for percent decrease in total Trp37 fluorescence (zinc ejection) at 2000 µM: 30 min incubation, read-out: Zinc Finger Reactivity % Decrease; for Zinc Finger Reactivity % Decrease: total percent decrease during a 30 min incubation; for zinc finger reactivity: result in words
T1 construct: within the nucleocapsid p7 (NCp7) protein portion of the polyprotein
Procedure: Zinc finger reactivity was measured using a Zn specific fluorochrome, TSQ, N-(6-methoxy-8-quinolyl) -p-toluenesulfonamide, assay or a Trp37 zinc finger fluorescence assay. Fluorescent measurements of the Trp37 residue in the C-terminal finger of recombinant HIV-1 NCp7 protein were performed as described by Rice (1995) Science 270:1194-1197; Rice (1997) Antimicrob. Agents Chemother. 41:419-426. Measurement of Zn ejection from both fingers was measured using the Zn-selective fluorchrome probe TSQ (Molecular Probes, Eugene OR) as described by Rice (1996) J. Med. Chem 39:3606-3616. Measurement of the ability of NCp7 to bind to a DNA oligomer, a 44 mer: […] (SEQ ID NO:1), analogous to the HIV-1 RNA packaging site was carried out as described by Huang (1998) J. Med. Chem. 41:1371-1381, see also, Rossio (1998) HIV Pathogenesis and Treatment: Keystone Symposium on Molecular and Cellular Biology, Abstract # 4082. Briefly, 50 nM NCp7 was treated with test compounds for 1 hour at RT in […] buffer containing 10% glycerol and 50 mM Tris-HCl (pH 7.5). Labeled oligomer (0.1 picomole, end labeled [^32P]) was added in an equal volume of buffer containing 10% glycerol, 50 mM Tris-HCl (pH 7.5), 400 mM KCl and 40 mM MgCl2. The reaction was continued for 15 min at room temperature, and a total of […] (or 1/4 of the total reaction volume) was separated on nondenaturing 4.5% polyacrylamide gels in 0.5X Tris-Borate electrophoresis buffer. NCp7-oligomer complexes were visualized by autoradiography.
Changes in the intrinsic fluorescence of aromatic protein moieties are commonly used to monitor a reaction which involves a change in protein conformation. In the present invention, fluorescence can be used to monitor the loss of metal ion from a zinc finger, e.g., the loss of zinc from a CCHC retroviral zinc finger protein, after contact with a thiolester of the invention. The intrinsic fluorescence of Trp 37 in the second zinc finger of HIV-1 NC protein has been used to monitor nucleic acid binding and conformation of the zinc finger complex (see, Summers (1992) supra).
Zinc ejection is measured by the ability of compounds to chemically attack the cysteines in purified NCp7 protein resulting in a loss of fluorescence due to the movement of the tryptophan 37 residue from an exposed to an internal position on the protein. Zinc ejection is measured and expressed as either percent decrease in total fluorescence or decrease in relative fluorescence units per min during a 30 min assay (RFU/min). A thiolester is considered within the scope of the invention if any amount of zinc ejection is detected. For example, compound 50 has a zinc ejection rate of 0.86 RFU/min.

NCp7 = target: T2, NCp7 (Human immunodeficiency virus type 1 group M subtype B, UniProt P03347); test: NCp7 binding to packaging-site oligonucleotide, electrophoretic mobility shift assay; assay type: biochemical, HIV-1; settings: for concentration at which NCp7-oligonucleotide complex formation was inhibited: EMSA on nondenaturing polyacrylamide gels; for IC50: Table 9, read-out: Nucleic Acid Binding (I50 µM)
T2 construct: within the nucleocapsid p7 (NCp7) protein portion of the polyprotein
Procedure: Zinc finger reactivity was measured using a Zn specific fluorochrome, TSQ, N-(6-methoxy-8-quinolyl) -p-toluenesulfonamide, assay or a Trp37 zinc finger fluorescence assay. Fluorescent measurements of the Trp37 residue in the C-terminal finger of recombinant HIV-1 NCp7 protein were performed as described by Rice (1995) Science 270:1194-1197; Rice (1997) Antimicrob. Agents Chemother. 41:419-426. Measurement of Zn ejection from both fingers was measured using the Zn-selective fluorchrome probe TSQ (Molecular Probes, Eugene OR) as described by Rice (1996) J. Med. Chem 39:3606-3616. Measurement of the ability of NCp7 to bind to a DNA oligomer, a 44 mer: GGCGACTGGTGAGTACGCCAAAAATTTTGACTAGCGGAGGCTAG (SEQ ID NO:1), analogous to the HIV-1 RNA packaging site was carried out as described by Huang (1998) J. Med. Chem. 41:1371-1381, see also, Rossio (1998) HIV Pathogenesis and Treatment: Keystone Symposium on Molecular and Cellular Biology, Abstract # 4082. Briefly, 50 nM NCp7 was treated with test compounds for 1 hour at RT in […] buffer containing 10% glycerol and 50 mM Tris-HCl (pH 7.5). Labeled oligomer (0.1 picomole, end labeled [^32P]) was added in an equal volume of buffer containing 10% glycerol, 50 mM Tris-HCl (pH 7.5), 400 mM KCl and 40 mM MgCl2. The reaction was continued for 15 min at room temperature, and a total of […] (or 1/4 of the total reaction volume) was separated on nondenaturing 4.5% polyacrylamide gels in 0.5X Tris-Borate electrophoresis buffer. NCp7-oligomer complexes were visualized by autoradiography.
Interaction of zinc finger inhibitors with NCp7 can result in loss of protein structure and their ability to specifically bind oligonucleotides representing the HIV-1ψ packaging site (Huang (1998) supra; Tummino (1997) Antimicrob. Agents Chemother. 41:394-400; South (1993) Protein Sci. 2:3-19; Dannull (1994) EMBO J. 13:1525-1533). The ability of NCp7 to specifically associate with these oligonucleotides after treatment of the protein with a thiolester of the invention was tested. For example, compounds 44, 45 or 47 were very effective at inhibiting Ncp7's ability to associate with target oligonucleotide, as determined using electrophoretic mobility shift assays (EMSA) on nondenaturing polyacrylamide gels. At 1 µM, compound 45 inhibited complex formation. Compounds 44 and 47 inhibited complex formation at 100 µM (see Table 9).

[2] = Table 5, average decrease in relative fluorescence units over 30 min
[3] = Table 6, average decrease in relative fluorescence units over 30 min
[4] = Table 8, GSH +: compounds (2 mM) treated 2 h at 37°C with 4 mM reduced glutathione

Structure (SMILES)	zinc finger reactivity in the presence of glutathione [1]	Zinc Finger Reactivity RFU/ min [1, 2]	Zinc Finger Reactivity RFU/ min [1, 3]	Zinc Finger Reactivity, decrease in relative fluorescence units per 30 min. [1]	Zinc Finger Reactivity, percent total decrease in flourescence [1]	Zinc Finger Reactivity RFU/ min [1, 4]	percent decrease in total Trp37 fluorescence (zinc ejection) at 2000 µM [1, 4]	Zinc Finger Reactivity RFU/ min ([1]; Table 8, GSH -)	Zinc Finger Reactivity % Decrease ([1]; Table 8, GSH -)	zinc finger reactivity [1]	concentration at which NCp7-oligonucleotide complex formation was inhibited (NCp7)	IC50 (NCp7)	zinc finger reactivity / zinc ejection rate [1]	Zinc Finger Reactivity RFU/ min ([1]; Table 10, average decrease in relative fluorescence units over 30 min)
CC(=O)NS(=O)(=O)c1ccc(NC(=O)c2ccccc2SC(=O)CCCCBr)cc1 [Compound 44, N-[2-(5-bromovaleroylthio)benzoyl]sulfacetamide]	maintained the capacity to attack the cysteine thiols	1.8 RFU/ min	1.8 RFU/ min	1.8 RFU/30 MIN	13.3%	2.4 RFU/min	28%	6.5 RFU/min	60.1%	promoted metal ion (zinc) ejection	100 µM	100 µM		
CC(=O)NS(=O)(=O)c1ccc(NC(=O)c2ccccc2SC(=O)CCCC[n+]2ccccc2)cc1 [Compound 45, N-[2-(5-pyridinio-valeroylthio)benzoyl]sulfacetamide bromide]	maintained the capacity to attack the cysteine thiols	3.6 RFU/ min	3.6 RFU/ min	3.6 RFU/30 MIN	34.7%	3.8 RFU/min	36.9%	2.6 RFU/min	28.2%	promoted metal ion (zinc) ejection	1 µM	1 µM	3.6 RFU/min	3.6 RFU/ min
O=C(CCCC[n+]1ccccc1)Sc1ccccc1C(=O)Nc1ccc(S(=O)(=O)c2ccc([N+](=O)[O-])cc2)cc1 [Compound 47]	maintained the capacity to attack the cysteine thiols		4.1 RFU/ min	4.1 RFU/30 MIN	17.9%	1.6 RFU/min	21.1%	1.6 RFU/min	24.3%	promoted metal ion (zinc) ejection	100 µM			
